*1 amine or outer side, *2 acyl side, *3 side chain or, on linkers, in order; H or OH if unused. Where a SMILES comes first, the peptide text is derived from it. Side-chain parts run from the residue outwards. [ ]: non-standard residue; d: D form. The star is where a group is joined. γGlu = O=C(O)[C@H](CCC(=O)[*:2])N[*:1]; Palmitoyl = CCCCCCCCCCCCCCCC(=O)*; hSer = N[C@@H](CCO)C(=O)O; Orn = NCCC[C@H](N)C(=O)O; Aib = CC(C)(N)C(=O)O

What all share (type): cell-based
The target of one assay is T1, GIP receptor (Homo sapiens, UniProt P48546).
T1 construct: expressed in transfected cells; host or cells: HEK293
T1 sequence (P48546 22-466): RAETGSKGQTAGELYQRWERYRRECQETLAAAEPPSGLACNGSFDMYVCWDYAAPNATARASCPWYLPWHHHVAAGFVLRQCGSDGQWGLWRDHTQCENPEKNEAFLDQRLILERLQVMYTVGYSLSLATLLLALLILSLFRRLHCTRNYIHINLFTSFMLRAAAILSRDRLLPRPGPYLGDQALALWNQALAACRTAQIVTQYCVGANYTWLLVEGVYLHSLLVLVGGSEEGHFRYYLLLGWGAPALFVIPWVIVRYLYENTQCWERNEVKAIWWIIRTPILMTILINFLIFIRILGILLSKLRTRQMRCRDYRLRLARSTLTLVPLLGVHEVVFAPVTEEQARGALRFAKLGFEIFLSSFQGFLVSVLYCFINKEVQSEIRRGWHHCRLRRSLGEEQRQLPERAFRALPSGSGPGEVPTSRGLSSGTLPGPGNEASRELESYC
The assay can be described thus: cAMP induction, firefly luciferase-based reporter assay in HEK293 cells co-transfected with GIP receptor. The note with it: EC50 at GIP Receptor. An excerpt:
(§1) This example describes an exemplary method of testing the biological activity of the peptides of the present disclosures, which method involves assaying cAMP synthesis.
For orientation: A reporter such as luciferase makes a cellular process visible.

A further assay concerns the target T2, glucagon receptor (Homo sapiens, UniProt P47871).
T2 construct: expressed in transfected cells; host or cells: HEK293
The assay can be described thus: cAMP induction, firefly luciferase-based reporter assay in HEK293 cells co-transfected with glucagon receptor. The conditions noted are these: EC50 at Glucagon Receptor.
Excerpt: as §1

For the next assay, the target named is T3, GLP-1 receptor (Homo sapiens, UniProt P43220).
T3 construct: expressed in transfected cells; host or cells: HEK293
The assay can be described thus: cAMP induction, firefly luciferase-based reporter assay in HEK293 cells co-transfected with GLP-1 receptor. The note with it: EC50 at GLP-1 Receptor.
Excerpt: as §1

The mark [1] stands for this setting: Table 5, analogs of SEQ ID NO: 10.
The mark [2] stands for this setting: Table 2, analogs of SEQ ID NO: 18 varying at positions 16-21.
Where [3] appears, read: Table 3, analogs of SEQ ID NO: 18 varying at position 3.

T2 sequence (P47871 26-477): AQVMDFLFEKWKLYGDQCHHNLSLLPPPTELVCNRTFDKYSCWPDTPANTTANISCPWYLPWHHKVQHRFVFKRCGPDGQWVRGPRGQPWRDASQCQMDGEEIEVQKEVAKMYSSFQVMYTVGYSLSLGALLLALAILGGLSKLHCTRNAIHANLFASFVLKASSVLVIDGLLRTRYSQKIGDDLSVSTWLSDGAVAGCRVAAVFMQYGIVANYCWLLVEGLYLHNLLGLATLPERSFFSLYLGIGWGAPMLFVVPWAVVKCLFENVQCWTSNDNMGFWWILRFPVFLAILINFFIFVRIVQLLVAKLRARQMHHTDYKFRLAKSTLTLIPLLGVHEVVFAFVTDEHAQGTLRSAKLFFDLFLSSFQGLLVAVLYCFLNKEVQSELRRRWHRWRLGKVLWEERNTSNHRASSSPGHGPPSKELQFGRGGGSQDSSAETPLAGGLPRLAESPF
T3 sequence (P43220 24-463): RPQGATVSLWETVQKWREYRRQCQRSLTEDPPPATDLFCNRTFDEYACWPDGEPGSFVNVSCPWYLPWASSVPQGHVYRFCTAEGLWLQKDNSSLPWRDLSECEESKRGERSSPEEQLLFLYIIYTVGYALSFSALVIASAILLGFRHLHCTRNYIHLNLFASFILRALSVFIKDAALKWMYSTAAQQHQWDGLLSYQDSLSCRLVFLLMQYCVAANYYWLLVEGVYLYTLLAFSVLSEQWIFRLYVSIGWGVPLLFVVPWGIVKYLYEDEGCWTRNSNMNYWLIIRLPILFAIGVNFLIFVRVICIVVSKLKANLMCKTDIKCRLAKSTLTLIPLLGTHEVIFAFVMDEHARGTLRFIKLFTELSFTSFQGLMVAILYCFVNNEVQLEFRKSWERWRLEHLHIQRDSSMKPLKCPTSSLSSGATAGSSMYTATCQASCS

By EC50 is commonly meant the concentration needed to bring the measured effect to its halfway point. Low values mean higher potency in that assay, high ones lower potency in that assay. With `CCCCCCCCCCCCCCCC(=O)N[C@@H](CCC(=O)NCCCC[C@H](NC(=O)[C@H](CC(=O)O)NC(=O)[C@H](CO)NC(=O)[C@@H](NC(=O)[C@H](Cc1ccccc1)NC(=O)[C@@H](NC(=O)CNC(=O)[C@H](CCC(N)=O)NC(=O)C(C)(C)NC(=O)[C@@H](N)Cc1c[nH]cn1)[C@@H](C)O)[C@@H](C)O)C(=O)N[C@@H](CO)C(=O)N[C@@H](CCCCN)C(=O)N[C@@H](Cc1ccc(O)cc1)C(=O)N[C@@H](CC(C)C)C(=O)N[C@@H](CC(=O)O)C(=O)N[C@@H](CCC(=O)O)C(=O)N[C@@H](CCCNC(=N)N)C(=O)N[C@@H](C)C(=O)N[C@@H](C)C(=O)N[C@@H](CCC(N)=O)C(=O)N[C@@H](CC(=O)O)C(=O)N[C@@H](Cc1ccccc1)C(=O)N[C@H](C(=O)N[C@@H](CCC(N)=O)C(=O)N[C@@H](Cc1c[nH]c2ccccc12)C(=O)N[C@@H](CC(C)C)C(=O)N[C@@H](CC(C)C)C(=O)N[C@@H](CC(=O)O)C(=O)N[C@H](C(=O)NCC(=O)N1CCC[C@H]1C(=O)N[C@@H](CO)C(=O)N[C@@H](CO)C(=O)NCC(=O)N[C@@H](C)C(=O)N1CCC[C@H]1C(=O)N1CCC[C@H]1C(=O)N1CCC[C@H]1C(=O)N[C@@H](CO)C(N)=O)C(C)C)C(C)C)C(=O)O` [compound 63] (H-H[Aib]QGTFTSDK([γGlu-Palmitoyl])SKYLDERAAQDFVQWLLDVGPSSGAPPPS-NH2; N-terminus assumed), the concentration for a half-maximal effect (EC50) on GIP receptor (setting [1]) stood at 55 pM; at glucagon receptor (setting [1]), 4 pM; on GLP-1 receptor (setting [1]), 3 pM.
For `CCCCCCCCCCCCCCCC(=O)N[C@@H](CCC(=O)NCCCC[C@H](NC(=O)[C@H](CC(=O)O)NC(=O)[C@H](CO)NC(=O)[C@@H](NC(=O)[C@H](Cc1ccccc1)NC(=O)[C@@H](NC(=O)CNC(=O)[C@H](CCC(N)=O)NC(=O)C(C)(C)NC(=O)[C@@H](N)Cc1c[nH]cn1)[C@@H](C)O)[C@@H](C)O)C(=O)N[C@@H](CO)C(=O)N[C@@H](CCCCN)C(=O)N[C@@H](Cc1ccc(O)cc1)C(=O)N[C@@H](CC(C)C)C(=O)N[C@@H](CC(=O)O)C(=O)N[C@@H](C)C(=O)N[C@@H](CCCNC(=N)N)C(=O)N[C@@H](C)C(=O)N[C@@H](C)C(=O)NC(C)(C)C(=O)N[C@@H](CCC(=O)O)C(=O)N[C@@H](Cc1ccccc1)C(=O)N[C@H](C(=O)N[C@@H](CCC(N)=O)C(=O)N[C@@H](Cc1c[nH]c2ccccc12)C(=O)N[C@@H](CC(C)C)C(=O)N[C@@H](CC(C)C)C(=O)N[C@@H](CC(=O)O)C(=O)NCC(=O)NCC(=O)N1CCC[C@H]1C(=O)N[C@@H](CO)C(=O)N[C@@H](CO)C(=O)NCC(=O)N[C@@H](C)C(=O)N1CCC[C@H]1C(=O)N1CCC[C@H]1C(=O)N1CCC[C@H]1C(=O)N[C@@H](CO)C(N)=O)C(C)C)C(=O)O` [compound 22] (H-H[Aib]QGTFTSDK([γGlu-Palmitoyl])SKYLDARAA[Aib]EFVQWLLDGGPSSGAPPPS-NH2), the values for the EC50 on GIP receptor (setting [2]), on glucagon receptor (setting [2]) and on GLP-1 receptor (setting [2]) were 4 pM, 5 pM and 11 pM, respectively.
For `CCCCCCCCCCCCCCCC(=O)N[C@@H](CCC(=O)NCCCC[C@H](NC(=O)[C@H](CC(=O)O)NC(=O)[C@H](CO)NC(=O)[C@@H](NC(=O)[C@H](Cc1ccccc1)NC(=O)[C@@H](NC(=O)CNC(=O)[C@H](CCCNC(C)=O)NC(=O)C(C)(C)NC(=O)[C@@H](N)Cc1c[nH]cn1)[C@@H](C)O)[C@@H](C)O)C(=O)N[C@@H](CO)C(=O)N[C@@H](CCCCN)C(=O)N[C@@H](Cc1ccc(O)cc1)C(=O)N[C@@H](CC(C)C)C(=O)N[C@@H](CCC(=O)O)C(=O)N[C@@H](CCC(=O)O)C(=O)N[C@@H](CCCNC(=N)N)C(=O)N[C@@H](C)C(=O)N[C@@H](C)C(=O)N[C@@H](CCC(N)=O)C(=O)N[C@@H](CCC(=O)O)C(=O)N[C@@H](Cc1ccccc1)C(=O)N[C@H](C(=O)N[C@@H](CCC(N)=O)C(=O)N[C@@H](Cc1c[nH]c2ccccc12)C(=O)N[C@@H](CC(C)C)C(=O)N[C@@H](CC(C)C)C(=O)N[C@@H](CCC(=O)O)C(=O)NCC(=O)NCC(=O)N1CCC[C@H]1C(=O)N[C@@H](CO)C(=O)N[C@@H](CO)C(=O)NCC(=O)N[C@@H](C)C(=O)N1CCC[C@H]1C(=O)N1CCC[C@H]1C(=O)N1CCC[C@H]1C(=O)N[C@@H](CO)C(N)=O)C(C)C)C(=O)O` [compound 34] (H-H[Aib][Orn](Ac)GTFTSDK([γGlu-Palmitoyl])SKYLEERAAQEFVQWLLEGGPSSGAPPPS-NH2; N-terminus assumed), the EC50 at GIP receptor (setting [3]) worked out at 20 pM; at glucagon receptor (setting [3]) it was 368 pM; on GLP-1 receptor (setting [3]), 1 pM.
With `CCCCCCCCCCCCCCCC(=O)N[C@@H](CCC(=O)NCCCC[C@H](NC(=O)[C@H](CC(=O)O)NC(=O)[C@H](CO)NC(=O)[C@@H](NC(=O)[C@H](Cc1ccccc1)NC(=O)[C@@H](NC(=O)CNC(=O)[C@H](CCO)NC(=O)C(C)(C)NC(=O)[C@@H](N)Cc1c[nH]cn1)[C@@H](C)O)[C@@H](C)O)C(=O)N[C@@H](CO)C(=O)N[C@@H](CCCCN)C(=O)N[C@@H](Cc1ccc(O)cc1)C(=O)N[C@@H](CC(C)C)C(=O)N[C@@H](CCC(=O)O)C(=O)N[C@@H](CCC(=O)O)C(=O)N[C@@H](CCCNC(=N)N)C(=O)N[C@@H](C)C(=O)N[C@@H](C)C(=O)N[C@@H](CCC(N)=O)C(=O)N[C@@H](CCC(=O)O)C(=O)N[C@@H](Cc1ccccc1)C(=O)N[C@H](C(=O)N[C@@H](CCC(N)=O)C(=O)N[C@@H](Cc1c[nH]c2ccccc12)C(=O)N[C@@H](CC(C)C)C(=O)N[C@@H](CC(C)C)C(=O)N[C@@H](CCC(=O)O)C(=O)NCC(=O)NCC(=O)N1CCC[C@H]1C(=O)N[C@@H](CO)C(=O)N[C@@H](CO)C(=O)NCC(=O)N[C@@H](C)C(=O)N1CCC[C@H]1C(=O)N1CCC[C@H]1C(=O)N1CCC[C@H]1C(=O)N[C@@H](CO)C(N)=O)C(C)C)C(=O)O` [compound 33] (H-H[Aib][hSer]GTFTSDK([γGlu-Palmitoyl])SKYLEERAAQEFVQWLLEGGPSSGAPPPS-NH2), the EC50 was determined as 4 pM on GIP receptor (setting [3]), 15 pM on glucagon receptor (setting [3]) and 2 pM on GLP-1 receptor (setting [3]).
Regarding `CCCCCCCCCCCCCCCC(=O)N[C@@H](CCC(=O)NCCCC[C@H](NC(=O)[C@H](CC(=O)O)NC(=O)[C@H](CO)NC(=O)[C@@H](NC(=O)[C@H](Cc1ccccc1)NC(=O)[C@@H](NC(=O)CNC(=O)[C@H](CCC(N)=O)NC(=O)C(C)(C)NC(=O)[C@@H](N)Cc1c[nH]cn1)[C@@H](C)O)[C@@H](C)O)C(=O)N[C@@H](CO)C(=O)N[C@@H](CCCCN)C(=O)N[C@@H](Cc1ccc(O)cc1)C(=O)N[C@@H](CC(C)C)C(=O)N[C@@H](CC(=O)O)C(=O)N[C@@H](Cc1c[nH]cn1)C(=O)N[C@@H](CCCNC(=N)N)C(=O)N[C@@H](C)C(=O)N[C@@H](C)C(=O)NC(C)(C)C(=O)N[C@@H](CCC(=O)O)C(=O)N[C@@H](Cc1ccccc1)C(=O)N[C@H](C(=O)N[C@@H](CCC(N)=O)C(=O)N[C@@H](Cc1c[nH]c2ccccc12)C(=O)N[C@@H](CC(C)C)C(=O)N[C@@H](CC(C)C)C(=O)N[C@@H](CC(=O)O)C(=O)NCC(=O)NCC(=O)N1CCC[C@H]1C(=O)N[C@@H](CO)C(=O)N[C@@H](CO)C(=O)NCC(=O)N[C@@H](C)C(=O)N1CCC[C@H]1C(=O)N1CCC[C@H]1C(=O)N1CCC[C@H]1C(=O)N[C@@H](CO)C(N)=O)C(C)C)C(=O)O` [compound 25] (H-H[Aib]QGTFTSDK([γGlu-Palmitoyl])SKYLDHRAA[Aib]EFVQWLLDGGPSSGAPPPS-NH2; N-terminus assumed), the EC50 turned out to be 3 pM on GIP receptor (setting [2]), 5 pM at glucagon receptor (setting [2]) and 4 pM on GLP-1 receptor (setting [2]).

For the origin of these results see US9340600B2 (Indiana University Research and Technology Corporation, priority 2012, dated 2016).
